Results as given in the supplement of paper PMC10307832.

What was measured:
Test in all cases: relative viability (nuclei count vs DMSO), 5 days (fraction); higher = more cells survive
[1] = compound: CC(C)N(CCCNC(=O)Nc1ccc(C(C)(C)C)cc1)C[C@H]1O[C@@H](n2ccc3c(N)ncnc32)[C@H](O)[C@@H]1O + Cc1nc(NC(=O)N2CCC[C@H]2C(N)=O)sc1-c1ccnc(C(C)(C)C(F)(F)F)c1 [Alpelisib] (partner 2 µM)
How it was run: (§1)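 Relative viability was taken as the ratio of nuclei in treated wells to nuclei in vehicle wells. Lung cancer cell lines in 1536-well plates received compounds by pin tool one day after seeding, either one drug alone or a fixed anchor-drug dose plus five library-drug doses (not always all listed) in √10 steps. Nuclei were counted on 4× images after 5 days of treatment, and values are medians of duplicate plates.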

[2] = compound: CC(C)=CC[C@@H](O)C1=CC(=O)c2c(O)ccc(O)c2C1=O [Shikonin] + Nc1ncn([C@H]2C[C@H](O)[C@@H](CO)O2)c(=O)n1 [Decitabine] (partner 2 µM)
How it was run: as §1

[3] = compound: CC(C)=CC[C@@H](O)C1=CC(=O)c2c(O)ccc(O)c2C1=O [Shikonin] + Cc1nc(NC(=O)N2CCC[C@H]2C(N)=O)sc1-c1ccnc(C(C)(C)C(F)(F)F)c1 [Alpelisib] (partner 2 µM)
How it was run: as §1

[4] = compound: CC(C)N(CCCNC(=O)Nc1ccc(C(C)(C)C)cc1)C[C@H]1O[C@@H](n2ccc3c(N)ncnc32)[C@H](O)[C@@H]1O + CS(=O)(=O)CCNCc1ccc(-c2ccc3ncnc(Nc4ccc(OCc5cccc(F)c5)c(Cl)c4)c3c2)o1 [Lapatinib] (partner 2 µM)
How it was run: as §1

| Cell Line | relative viability ([1]; first compound 0.08 µM) | relative viability ([1]; first compound 0.253 µM) | relative viability ([1]; first compound 0.8 µM) | relative viability ([1]; first compound 2.53 µM) | relative viability ([1]; first compound 8 µM) | relative viability ([2]; first compound 0.01 µM) | relative viability ([2]; first compound 0.1 µM) | relative viability ([2]; first compound 0.3162 µM) | relative viability ([2]; first compound 1 µM) | relative viability ([3]; first compound 0.01 µM) | relative viability ([3]; first compound 0.1 µM) | relative viability ([3]; first compound 0.3162 µM) | relative viability ([3]; first compound 1 µM) | relative viability ([4]; first compound 0.08 µM) | relative viability ([4]; first compound 0.253 µM) | relative viability ([4]; first compound 0.8 µM) | relative viability ([4]; first compound 2.53 µM) | relative viability ([4]; first compound 8 µM) |
| --- | --- | --- | --- | --- | --- | --- | --- | --- | --- | --- | --- | --- | --- | --- | --- | --- | --- | --- |
| HCC-366 | 0.394 | 0.442 | 0.366 | 0.367 | 0.41 | 0.34 | 0.381 | 0.37 | 0.367 | 0.329 | 0.347 | 0.423 | 0.379 | 0.987 | 1.07 | 1.02 | 0.981 | 0.976 |
| HCC-827 | 0.922 | 0.938 | – | 0.952 | 0.919 | 0.326 | 0.29 | 0.33 | 0.329 | 0.996 | 1.11 | 0.994 | 0.812 | 0.207 | 0.217 | – | 0.174 | 0.158 |
| HOP-62 | 0.997 | 1.16 | 0.912 | 0.971 | 0.909 | 0.24 | 0.222 | 0.205 | 0.212 | 1.11 | 1.37 | 1.2 | 0.707 | 1.02 | 0.797 | 0.858 | 0.958 | 0.764 |
| IA-LM | 0.667 | 0.759 | 0.787 | 0.701 | 0.723 | – | – | – | – | 0.862 | 0.667 | 0.637 | 0.69 | 0.959 | 0.801 | 0.733 | 0.734 | 0.681 |
| LC-2-ad | 0.802 | 0.83 | 0.992 | 0.823 | 0.806 | 0.75 | 0.849 | 0.874 | 0.89 | 0.921 | 0.944 | 0.925 | 0.912 | 0.937 | 0.906 | 0.925 | 0.966 | 0.835 |
| LCLC-97TM1 | 0.251 | – | 0.267 | 0.174 | 0.222 | 0.257 | 0.232 | 0.215 | 0.242 | 0.246 | 0.238 | 0.25 | 0.292 | 0.906 | – | 1.41 | 0.517 | 1.11 |
| LCLC-103H | 1.03 | 0.905 | 0.907 | 0.99 | 0.898 | 0.711 | 0.727 | 0.74 | 0.75 | 0.984 | 0.994 | 0.896 | 0.978 | – | – | – | – | – |
| LK-2 | 0.923 | 1.02 | 1.01 | 0.934 | 1.02 | 0.297 | 0.272 | 0.289 | 0.352 | 1.04 | 1.54 | 1.11 | 1.04 | 0.842 | 0.792 | 0.985 | 0.867 | 0.82 |
| LOU-NH91 | 0.631 | 0.679 | – | 0.753 | 0.663 | 0.787 | 0.879 | 0.856 | 0.816 | 0.703 | 0.73 | 0.839 | 0.727 | 0.643 | 0.731 | – | 0.83 | 0.773 |
| LU99A | 0.477 | 0.445 | 0.54 | 0.555 | 0.503 | 0.744 | 1.05 | 0.978 | 0.852 | 0.592 | 0.671 | 0.576 | 0.441 | 0.923 | 0.679 | 1.16 | 1.16 | 1.04 |
| LXF-289 | 1.01 | 1.05 | 1.07 | 1.09 | 1.04 | 0.356 | 0.342 | 0.453 | 0.378 | 1.12 | 0.963 | 1.02 | 1.03 | 0.867 | 0.956 | 0.863 | 0.943 | 0.821 |
| NCI-H23 | 0.687 | – | 0.695 | 0.684 | 0.668 | 0.335 | 0.306 | 0.333 | 0.277 | 0.76 | 0.65 | 0.804 | 0.659 | 1 | – | 1.22 | 1.21 | 0.955 |
| NCI-H322M | 0.732 | 0.775 | 0.766 | 0.829 | 0.829 | 0.736 | 0.723 | 0.714 | 0.664 | 0.73 | 0.77 | 0.856 | 0.857 | 0.536 | 0.591 | 0.607 | 0.564 | 0.607 |
| NCI-H441 | – | 0.653 | 0.88 | 0.677 | 0.712 | 0.249 | 0.26 | 0.258 | 0.206 | 1.14 | 0.874 | 0.508 | 0.729 | – | – | – | – | – |
| NCI-H522 | – | – | – | – | – | 0.62 | 0.763 | 0.644 | 0.553 | – | – | – | – | – | – | – | – | – |
| NCI-H1299 | 1.03 | 1.03 | 1.07 | 1.02 | 1.04 | – | – | – | – | 1.11 | 1.06 | 1.04 | 1.07 | 0.984 | 0.948 | 0.914 | 0.919 | 0.891 |
| NCI-H1563 | 0.991 | 0.907 | 1.09 | 0.973 | 0.991 | – | – | – | – | 0.906 | 0.999 | 0.875 | 0.779 | 0.862 | 0.836 | 0.742 | 1.05 | 0.915 |
| NCI-H1648 | – | – | – | – | – | 0.481 | – | 0.526 | 0.532 | – | – | – | – | – | – | – | – | – |
| NCI-H1650 | – | – | – | – | – | 0.379 | 0.355 | 0.424 | 0.389 | – | – | – | – | 0.753 | 0.584 | – | 0.762 | 0.884 |
| NCI-H1703 | 0.309 | 0.322 | 0.304 | 0.439 | 0.318 | – | – | – | – | 0.317 | 0.277 | 0.287 | 0.244 | 0.956 | 1.06 | 0.823 | 1.61 | 0.892 |
| NCI-H2228 | 0.782 | – | 0.796 | 0.76 | 0.745 | – | – | – | – | 0.66 | 0.781 | 0.73 | 0.556 | 0.971 | – | 1.06 | 0.949 | 0.984 |
| NCI-H2342 | – | – | – | – | – | 0.723 | 0.72 | 0.74 | 0.748 | – | – | – | – | – | – | – | – | – |
| SW 900 | – | – | – | – | – | 0.373 | 0.536 | 0.395 | 0.396 | – | – | – | – | – | – | – | – | – |
